Results as given in the supplement of paper PMC10307832.

Experiments:
Assay in all cases: relative viability (nuclei count vs DMSO), 5 days (fraction); higher = more cells survive
[1] = compound: C1=CC2=NC=CN=C2C=C1/C=C/3\C(=O)NC(=O)S3 + COc1cc2c(Oc3ccc(NC(=O)C4(C(=O)Nc5ccc(F)cc5)CC4)cc3F)ccnc2cc1OCCCN1CCOCC1 [Foretinib] (partner 0.25 µM)
Procedure, shortened: (§1)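 Relative viability is defined as nuclei in treated wells over nuclei in vehicle wells. Duplicate plates were run and medians reported. Lung cancer cell lines in 1536-well plates were dosed by pin tool one day after seeding, with one drug or with a fixed anchor-drug dose plus five library-drug doses (not always all listed) in √10 steps, and nuclei were counted after 5 days.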

[2] = compound: CCN1CCN(c2ccc(Nc3cc(N(C)C(=O)Nc4c(Cl)c(OC)cc(OC)c4Cl)ncn3)cc2)CC1 [BGJ398] + CC1(C)CCC(c2ccc(Cl)cc2)=C(CN2CCN(c3ccc(C(=O)NS(=O)(=O)c4ccc(N[C@H](CCN5CCOCC5)CSc5ccccc5)c(S(=O)(=O)C(F)(F)F)c4)cc3)CC2)C1 [Navitoclax] (partner 0.5 µM)
Procedure, shortened: as §1

[3] = compound: C1=CC2=NC=CN=C2C=C1/C=C/3\C(=O)NC(=O)S3 + Nc1ncn([C@H]2C[C@H](O)[C@@H](CO)O2)c(=O)n1 [Decitabine] (partner 2 µM)
Procedure, shortened: as §1

[4] = compound: CCN1CCN(c2ccc(Nc3cc(N(C)C(=O)Nc4c(Cl)c(OC)cc(OC)c4Cl)ncn3)cc2)CC1 [BGJ398] + Nc1ncn([C@H]2C[C@H](O)[C@@H](CO)O2)c(=O)n1 [Decitabine] (partner 2 µM)
Procedure, shortened: as §1

| Cell Line | relative viability ([1]; first compound 0.02 µM) | relative viability ([1]; first compound 0.06325 µM) | relative viability ([1]; first compound 0.2 µM) | relative viability ([1]; first compound 0.6325 µM) | relative viability ([1]; first compound 2 µM) | relative viability ([2]; first compound 0.01 µM) | relative viability ([2]; first compound 0.03162 µM) | relative viability ([2]; first compound 0.1 µM) | relative viability ([2]; first compound 0.3162 µM) | relative viability ([2]; first compound 1 µM) | relative viability ([3]; first compound 0.02 µM) | relative viability ([3]; first compound 0.06325 µM) | relative viability ([3]; first compound 0.2 µM) | relative viability ([3]; first compound 0.6325 µM) | relative viability ([3]; first compound 2 µM) | relative viability ([4]; first compound 0.01 µM) | relative viability ([4]; first compound 0.03162 µM) | relative viability ([4]; first compound 0.1 µM) | relative viability ([4]; first compound 0.3162 µM) | relative viability ([4]; first compound 1 µM) |
| --- | --- | --- | --- | --- | --- | --- | --- | --- | --- | --- | --- | --- | --- | --- | --- | --- | --- | --- | --- | --- |
| NCI-H1651 | 0.774 | 0.734 | 0.911 | 0.796 | 0.75 | 0.988 | 1.18 | 0.978 | 0.961 | 0.991 | 0.56 | 0.424 | 0.651 | 0.576 | 0.552 | 0.463 | 0.604 | 0.664 | 0.602 | 0.458 |
| NCI-H1666 | 1.03 | 0.879 | 0.986 | 0.909 | 0.932 | 0.949 | 1.01 | 0.91 | 0.967 | 0.842 | 0.717 | 0.709 | 0.775 | 0.691 | 0.672 | 0.634 | 0.763 | 0.814 | 0.68 | 0.506 |
| NCI-H1734 | 0.891 | 0.674 | 0.808 | 0.844 | 0.681 | 0.836 | 0.878 | 0.81 | 0.832 | 0.826 | 0.483 |  | 0.517 | 0.501 | 0.489 | 0.456 | 0.555 | 0.409 | 0.404 | 0.47 |
| NCI-H1755 | 0.807 | 0.942 | 0.923 | 0.897 | 0.864 | 0.984 | 1.04 | 0.986 | 0.968 | 1.07 | 0.74 | 0.628 | 0.729 | 0.689 | 0.685 | 0.675 | 0.738 | 0.721 | 0.686 | 0.634 |
| NCI-H1793 | 0.633 | 0.601 | 0.721 | 0.634 | 0.642 | 0.417 |  | 0.391 | 0.251 | 0.326 | 0.417 | 0.391 | 0.559 | 0.447 | 0.552 | 0.479 | 0.457 | 0.451 | 0.423 | 0.376 |
| NCI-H1915 | 1.11 | 1.12 | 1.15 | 1.09 | 1.04 | 0.73 | 0.786 | 0.774 | 0.77 | 0.766 | 0.238 | 0.281 | 0.28 | 0.252 | 0.281 | 0.271 | 0.248 | 0.28 | 0.281 | 0.241 |
| NCI-H1944 | 0.814 | 0.78 | 0.885 | 0.795 | 0.903 | 0.986 | 1.05 | 1.08 | 0.884 | 1.05 | 0.364 | 0.386 | 0.432 | 0.423 | 0.462 | 0.401 | 0.404 | 0.448 | 0.43 | 0.48 |
| NCI-H1975 | 0.904 | 1.03 | 0.992 | 0.866 | 0.84 | 1.11 | 1.09 | 1.12 | 1.19 | 1.05 | 0.362 | 0.359 | 0.436 | 0.37 | 0.359 | 0.492 | 0.454 | 0.423 | 0.406 | 0.381 |
| NCI-H1993 | 0.694 | 0.817 | 0.72 | 0.748 | 0.578 | 1.02 | 0.836 | 0.909 | 1.02 | 0.882 | 0.527 | 0.594 | 0.737 | 0.557 | 0.507 | 0.59 | 0.624 | 0.582 | 0.696 | 0.576 |
| NCI-H2009 | 1.21 | 1.22 | 1.3 | 1.28 | 1.12 | 1.21 | 1.19 | 1.18 | 1.23 | 1.17 | 0.353 | 0.388 | 0.358 | 0.381 | 0.352 | 0.358 | 0.371 | 0.399 | 0.425 | 0.361 |
| NCI-H2023 | 0.714 | 0.832 | 0.765 | 0.781 | 0.51 | 0.953 | 1.01 | 1.01 | 1.02 | 0.993 | 0.205 | 0.237 | 0.205 | 0.195 | 0.222 | 0.197 | 0.226 | 0.23 | 0.218 | 0.211 |
| NCI-H2085 | 0.966 | 1.09 | 0.902 | 1.03 | 0.882 | 1.09 | 1.13 | 1.15 | 1.23 | 1.05 | 0.495 | 0.457 | 0.578 | 0.539 | 0.566 | 0.528 | 0.578 | 0.544 | 0.535 | 0.547 |
| NCI-H2087 | 1.12 | 0.974 | 0.992 | 0.975 | 0.931 | 0.847 | 0.973 | 0.83 | 0.974 | 0.741 | 0.355 | 0.255 | 0.256 | 0.253 | 0.267 | 0.178 | 0.288 | 0.263 | 0.325 | 0.234 |
| NCI-H2126 | 0.917 | 0.987 | 1.2 | 1.11 | 0.745 | 0.809 | 0.831 | 0.888 | 0.839 | 0.902 | 0.567 | 0.647 | 0.567 | 0.527 | 0.481 | 0.608 | 0.601 | 0.611 | 0.612 | 0.566 |
| NCI-H2170 | 0.962 | 1.12 | 1.05 | 1.01 | 1.02 | 0.505 | 0.572 | 0.586 | 0.671 | 0.765 | 0.467 | 0.47 | 0.451 | 0.414 | 0.46 | 0.434 | 0.453 | 0.466 | 0.456 | 0.499 |
| NCI-H2347 | 0.843 | 0.77 | 0.948 | 0.86 | 0.634 | 0.671 | 0.939 | 0.828 | 0.835 | 0.777 | 0.631 | 0.829 | 0.631 | 0.586 | 0.546 | 0.608 | 0.621 | 0.612 | 0.621 | 0.563 |
